Patent US20240360091A1, “GLUN2B-SUBUNIT SELECTIVE ANTAGONISTS OF THE N-METHYL-D-ASPARTATE RECEPTORS WITH ENHANCED POTENCY AT ACIDIC PH” (Emory University, priority 2021, published 2024)
Where two headings read alike, the source gives them in different places.

Columns and labels:
[1] = molecular target: human GluN1/GluN2B (Homo sapiens (Human), UniProt Q05586+Q13224); assay: Two electrode voltage-clamp recordings from Xenopus laevis oocytes, GluN2B potency and pH dependence; format: cell-based
Experimental: Two Electrode Voltage-Clamp Recordings from Xenopus laevis Oocytes
Stage V-VI Xenopus laevis unfertilized oocytes were purchased from Ecocyte (Austin, Texas) and injected with 5 ng of GluN1 and 10 ng of GluN2B cRNAs. The cDNAs for human GluN1 and GluN2B, encoding NCBI reference sequences NM_007327.3 and NM_000834.3, respectively, were linearized and cRNAs made as previously described (Traynelis et al., J Neurosci, 1998, 18(16):6163-75). After injection, the oocytes were incubated in Barth's culture solution (88 mM NaCl, 1 mM KCl, 2.4 mM NaHCO3, 10 mM HEPES, 0.82 mM MgSO4, 0.33 mM Ca(NO3)2, 0.41 mM CaCl2), 10 U/mL PenStrep, and 0.1 mg/mL gentamycin, pH 7.4) at 18° C. Two electrode voltage-clamp (TEVC) recordings were made at 22-23° C., 2-7 days after the injection, using Warner OC725C amplifiers (VHOLD=−40 mV). Briefly, the oocytes were perfused in a recording solution (90 mM NaCl, 1 mM KCl, 10 mM HEPES, 0.01 mM EDTA, and 0.5 mM BaCl2) adjusted to either pH 7.6 or 6.9 by addition of NaOH or HCl, respectively (pH 6.9 solutions were prepared by addition of HCl to pH 7.6 solutions to maintain an equal concentration of Na^+ ions in both solutions). Concentration-response curves of the compounds were obtained by application of increasing concentrations of each individual compound until steady state conditions were obtained, in the presence of saturating agonist concentrations (i.e., 100 μM glutamate and 30 μM glycine). In general, oocyte recordings were made from 4-10 oocytes per experiment (i.e., oocyte injection cycle) from ≥two experiments. The concentration-response relationship for each oocyte was fit by equation (1),
Percent Response=(100−minimum)/(1+([concentration]/IC50)^nH)+minimum (1)
where minimum is the residual response in saturating concentration of each individual compound (constrained to be ≥0), and IC50 is the concentration of compound that causes half-maximal inhibition, and nH is the Hill slope.

[2] = molecular target: GluN2A (Homo sapiens (Human), UniProt Q12879); assay: Two electrode voltage-clamp recordings, single concentration, GluN2A; format: cell-based; details: pH 6.9
Chain of GluN2A (Q12879 23-1464, other chains not shown): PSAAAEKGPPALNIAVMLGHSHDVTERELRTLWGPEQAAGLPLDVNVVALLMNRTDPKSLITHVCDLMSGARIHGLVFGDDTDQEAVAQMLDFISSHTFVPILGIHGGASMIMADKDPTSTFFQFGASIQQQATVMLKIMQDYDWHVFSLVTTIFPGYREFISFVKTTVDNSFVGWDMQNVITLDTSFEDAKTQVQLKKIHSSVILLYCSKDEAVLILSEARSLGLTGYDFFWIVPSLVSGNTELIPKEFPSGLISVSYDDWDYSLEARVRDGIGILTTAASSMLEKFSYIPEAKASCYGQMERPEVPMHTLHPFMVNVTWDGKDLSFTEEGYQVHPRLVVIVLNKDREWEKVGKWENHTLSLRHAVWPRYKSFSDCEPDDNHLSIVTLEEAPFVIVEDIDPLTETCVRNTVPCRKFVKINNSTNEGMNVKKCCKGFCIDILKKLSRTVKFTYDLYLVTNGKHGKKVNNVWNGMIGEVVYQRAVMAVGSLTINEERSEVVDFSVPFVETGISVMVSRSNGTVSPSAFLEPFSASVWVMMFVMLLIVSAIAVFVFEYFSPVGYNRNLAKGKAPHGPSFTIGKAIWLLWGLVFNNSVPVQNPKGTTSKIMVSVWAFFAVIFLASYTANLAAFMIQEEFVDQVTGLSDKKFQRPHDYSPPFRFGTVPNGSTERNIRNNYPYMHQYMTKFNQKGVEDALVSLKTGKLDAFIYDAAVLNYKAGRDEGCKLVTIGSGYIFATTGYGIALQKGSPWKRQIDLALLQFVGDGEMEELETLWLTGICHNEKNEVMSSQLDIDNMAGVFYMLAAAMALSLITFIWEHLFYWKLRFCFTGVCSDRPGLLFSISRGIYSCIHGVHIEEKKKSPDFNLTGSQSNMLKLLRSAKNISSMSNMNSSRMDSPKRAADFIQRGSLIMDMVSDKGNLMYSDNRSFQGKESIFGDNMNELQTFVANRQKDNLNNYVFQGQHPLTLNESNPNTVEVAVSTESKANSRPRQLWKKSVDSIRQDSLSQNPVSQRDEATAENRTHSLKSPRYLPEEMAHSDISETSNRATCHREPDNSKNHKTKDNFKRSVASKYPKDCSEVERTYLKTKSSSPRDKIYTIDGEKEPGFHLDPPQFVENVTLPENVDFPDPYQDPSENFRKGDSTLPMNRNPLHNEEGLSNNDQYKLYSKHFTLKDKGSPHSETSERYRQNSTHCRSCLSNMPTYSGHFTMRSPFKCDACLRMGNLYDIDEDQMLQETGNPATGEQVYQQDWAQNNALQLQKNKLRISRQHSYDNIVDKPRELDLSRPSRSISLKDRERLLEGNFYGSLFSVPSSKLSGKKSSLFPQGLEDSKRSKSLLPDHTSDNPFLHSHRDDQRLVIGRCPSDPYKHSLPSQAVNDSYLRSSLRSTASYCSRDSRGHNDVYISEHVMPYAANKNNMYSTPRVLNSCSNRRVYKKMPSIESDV

[3] = molecular target: GluN2C (Homo sapiens (Human), UniProt Q14957); assay: Two electrode voltage-clamp recordings, single concentration, GluN2C; format: cell-based; details: pH 6.9
Chain of GluN2C (Q14957 20-1233, other chains not shown): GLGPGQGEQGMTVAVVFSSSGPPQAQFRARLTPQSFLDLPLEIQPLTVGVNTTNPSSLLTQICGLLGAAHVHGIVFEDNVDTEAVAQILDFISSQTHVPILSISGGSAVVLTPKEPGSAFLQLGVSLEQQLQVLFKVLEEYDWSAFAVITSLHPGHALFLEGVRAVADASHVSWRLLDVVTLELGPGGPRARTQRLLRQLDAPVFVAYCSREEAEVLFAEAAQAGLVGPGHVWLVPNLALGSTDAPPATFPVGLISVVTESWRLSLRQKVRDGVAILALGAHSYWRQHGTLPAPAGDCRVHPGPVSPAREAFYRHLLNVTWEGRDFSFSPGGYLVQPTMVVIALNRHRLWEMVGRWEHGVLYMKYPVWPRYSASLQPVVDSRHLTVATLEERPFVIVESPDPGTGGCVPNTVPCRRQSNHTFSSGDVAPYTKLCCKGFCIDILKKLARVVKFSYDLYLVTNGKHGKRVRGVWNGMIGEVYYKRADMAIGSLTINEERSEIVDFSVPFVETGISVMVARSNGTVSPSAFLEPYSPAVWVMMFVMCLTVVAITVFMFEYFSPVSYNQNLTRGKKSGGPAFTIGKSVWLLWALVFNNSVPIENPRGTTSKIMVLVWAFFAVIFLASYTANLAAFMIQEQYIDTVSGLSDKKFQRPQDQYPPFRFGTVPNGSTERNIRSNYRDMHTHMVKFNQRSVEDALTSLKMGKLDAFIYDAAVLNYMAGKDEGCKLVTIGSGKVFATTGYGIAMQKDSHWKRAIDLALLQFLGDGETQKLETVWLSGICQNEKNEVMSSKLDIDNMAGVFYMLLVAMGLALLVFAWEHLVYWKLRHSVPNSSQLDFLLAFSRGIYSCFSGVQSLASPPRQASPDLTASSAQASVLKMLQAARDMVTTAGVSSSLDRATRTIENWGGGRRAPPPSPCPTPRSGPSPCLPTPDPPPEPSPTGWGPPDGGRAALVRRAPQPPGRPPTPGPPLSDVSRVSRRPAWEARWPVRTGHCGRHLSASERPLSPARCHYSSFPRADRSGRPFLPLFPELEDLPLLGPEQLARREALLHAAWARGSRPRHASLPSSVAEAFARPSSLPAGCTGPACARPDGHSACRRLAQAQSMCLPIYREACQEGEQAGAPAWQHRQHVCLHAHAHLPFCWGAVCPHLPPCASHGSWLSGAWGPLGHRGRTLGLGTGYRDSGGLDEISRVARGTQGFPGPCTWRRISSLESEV

[4] = Plasma protein binding, rapid equilibrium dialysis, human; format: in vitro ADME; details: n=2
Experimental: (§1) Plasma protein binding was performed with a rapid equilibrium dialysis (RED) device containing dialysis membrane with a molecular weight cut-off of 8,000 Daltons according to the manufacturer's instructions (ThermoFisher, USA). The plasma samples (pH 7.4) and the test compound solution (1 or 5 μM) or reference standards (Warfarin and Propranolol, 10 μM) were combined (DMSO final conc 0.1%). 300 μL of this spiked plasma sample was added to the sample chamber, and 500 μL of blank PBS buffer (pH 7.4) was added into the buffer chamber. The RED device was sealed with adhesive film and then incubated at 37° C. with shaking at 300 rpm for 4 h. Following incubation, an aliquot (50 μL) was removed from each well (spiked plasma and buffer side) and diluted with equal volume of the corresponding opposite matrix (blank buffer or blank plasma) to nullify the matrix effect, and then extracted for analysis by LC-MS/MS. The amount of free material was determined by:
(§2) % Free=(LC-MS/MS peak area of test compound in buffer side/LC-MS/MS peak area of test compound in plasma side)×100%

[5] = Plasma protein binding, rapid equilibrium dialysis, mouse; format: in vitro ADME; details: n=2
Experimental: as §1, §2

[6] = Plasma protein binding, rapid equilibrium dialysis, dog; format: in vitro ADME; details: n=1
Experimental: as §1, §2

[7] = molecular target: 5-HT1B (Homo sapiens (Human), UniProt P28222); assay: Off-target radioligand binding displacement (NIMH PDSP); details: pH 7.4
Experimental: (§3) Briefly, the compound was submitted to the NIMH PDSP and screened at a single concentration (10 μM) of test article under equilibrium conditions for ability to displace specific radioligands from binding to their targets expressed in mammalian cell membranes in vitro. Each receptor target was assayed in quadruplicate and the % inhibition of radioligand binding at each target determined at pH 7.4. […]

[8] = molecular target: 5-HT1D (Homo sapiens (Human), UniProt P28221); assay: as above; details: pH 7.4
Chain of 5-HT1D (P28221 whole entry, species assumed): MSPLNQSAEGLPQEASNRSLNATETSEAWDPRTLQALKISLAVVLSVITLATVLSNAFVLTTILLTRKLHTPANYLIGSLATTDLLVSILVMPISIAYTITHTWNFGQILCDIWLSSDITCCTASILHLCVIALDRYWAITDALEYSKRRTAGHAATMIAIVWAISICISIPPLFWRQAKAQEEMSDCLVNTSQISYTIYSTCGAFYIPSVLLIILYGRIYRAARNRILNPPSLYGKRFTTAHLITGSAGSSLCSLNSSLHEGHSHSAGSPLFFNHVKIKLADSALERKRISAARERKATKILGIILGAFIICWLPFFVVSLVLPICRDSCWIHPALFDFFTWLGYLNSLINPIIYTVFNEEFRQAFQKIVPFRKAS
Experimental: as §3

[9] = molecular target: Alpha2C (Homo sapiens (Human), UniProt P18825); assay: as above; details: pH 7.4
Chain of Alpha2C (P18825 whole entry): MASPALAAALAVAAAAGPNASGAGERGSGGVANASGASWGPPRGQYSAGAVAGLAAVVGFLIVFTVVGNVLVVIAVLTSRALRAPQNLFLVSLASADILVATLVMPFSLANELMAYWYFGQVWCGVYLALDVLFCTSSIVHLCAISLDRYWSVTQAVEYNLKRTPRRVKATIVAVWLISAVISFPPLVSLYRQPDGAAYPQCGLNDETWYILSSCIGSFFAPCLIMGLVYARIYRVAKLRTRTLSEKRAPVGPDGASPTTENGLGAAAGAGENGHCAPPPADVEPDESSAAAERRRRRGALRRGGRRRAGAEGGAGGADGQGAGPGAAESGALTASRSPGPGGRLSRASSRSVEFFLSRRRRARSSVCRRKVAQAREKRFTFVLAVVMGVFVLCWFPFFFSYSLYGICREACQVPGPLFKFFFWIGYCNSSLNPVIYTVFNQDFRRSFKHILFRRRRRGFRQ
Experimental: as §3

[10] = molecular target: SERT (Homo sapiens (Human), UniProt P31645); assay: as above; details: pH 7.4
Experimental: as §3

[11] = molecular target: hERG potassium channel (Homo sapiens (Human), UniProt Q12809); assay: hERG potassium channel current, automatic patch clamp in HEK cells; format: cell-based; details: pH 7.4, patch clamp; read-out: Functional IC50 (μM) hERG
Experimental: Each test concentration was tested in two or more cells (n≥2). Duration of exposure to each test article concentration was 3 minutes. A positive control (0.5 μM […]) was used to confirm the sensitivity of the cells to an hERG inhibitor.

[12] = in vivo; details: BALB/c, mouse, plasma
Experimental: Formulation for pharmacokinetic studies used 2% or 10% N′,N′-dimethylacetamide, 10% propylene glycol, and 30% 2-hydroxypropyl-beta-cyclodextrin in water and a dose volume of 10 mL/kg (all routes of administration).
Briefly, mice were administered a 2 mg/kg or a 5 mg/kg dose (n=3 each) by IP injection (10 mL/kg dose volume) and blood samples collected at 0.08, 0.25, 0.5, 1, 2, 4, 8 and 24 hours post dose in tubes containing sodium heparin on ice. 100 μL of plasma was combined with 50 μL of internal standard (haloperidol, 10 μg/mL) and tubes were then spun at 4000 g for 10 min (4° C.) and plasma transferred to clean tubes and stored at −80° C. until analysis.
Blood samples were collected on ice in sodium heparin tubes at 0.08, 0.25, 0.5, 1, 2, 4, 8, and 24 hours post dose. Samples were prepared and analyzed as described above except here the internal standard was fluconazole (10 μg/mL).

[13] = clinical; details: human, plasma, intravenous
Experimental: Subjects checked into the clinic on Day 1 and remained in the clinic through the 48 h post-dose blood draw on Day 7, after which time they were discharged. Subjects returned to the clinic for a follow-up visit at Day 9. […] Dose levels included 25, 50 and 100 mg.
Collection tubes containing K2EDTA were be used to collect 5 mL of whole blood sample at each time point. Immediately after collection, tubes were inverted to mix the anticoagulant with the blood sample. Tubes were then centrifuged at a speed of approximately 3000 g force for 10 minutes at 4° C. Within 5 minutes of centrifugation the plasma fraction was transferred into two equal aliquots (1.25 mL each) into 2 mL cryovials and then frozen and stored at −70° C.
The method was adapted and used to measure plasma samples by TMD Pharmaceutical Research (Newark, DE). […] Analytes were detected by multiple reaction monitoring using an MDS Sciex API 4000 mass spectrometer (AB Sciex, Framingham, MA) in positive mode.
The pharmacokinetic analysis was performed based on the non-compartmental analysis approach (M. Garibaldi and D Perrier, Pharmacokinetics 2nd Edition, Chapter 11, Marcel Dekker Inc., New York, 1982) using MS Excel®.

[14] = % current remaining after 3 μM compound

Chain of human GluN1/GluN2B (Q13224 27-1484, other chains not shown): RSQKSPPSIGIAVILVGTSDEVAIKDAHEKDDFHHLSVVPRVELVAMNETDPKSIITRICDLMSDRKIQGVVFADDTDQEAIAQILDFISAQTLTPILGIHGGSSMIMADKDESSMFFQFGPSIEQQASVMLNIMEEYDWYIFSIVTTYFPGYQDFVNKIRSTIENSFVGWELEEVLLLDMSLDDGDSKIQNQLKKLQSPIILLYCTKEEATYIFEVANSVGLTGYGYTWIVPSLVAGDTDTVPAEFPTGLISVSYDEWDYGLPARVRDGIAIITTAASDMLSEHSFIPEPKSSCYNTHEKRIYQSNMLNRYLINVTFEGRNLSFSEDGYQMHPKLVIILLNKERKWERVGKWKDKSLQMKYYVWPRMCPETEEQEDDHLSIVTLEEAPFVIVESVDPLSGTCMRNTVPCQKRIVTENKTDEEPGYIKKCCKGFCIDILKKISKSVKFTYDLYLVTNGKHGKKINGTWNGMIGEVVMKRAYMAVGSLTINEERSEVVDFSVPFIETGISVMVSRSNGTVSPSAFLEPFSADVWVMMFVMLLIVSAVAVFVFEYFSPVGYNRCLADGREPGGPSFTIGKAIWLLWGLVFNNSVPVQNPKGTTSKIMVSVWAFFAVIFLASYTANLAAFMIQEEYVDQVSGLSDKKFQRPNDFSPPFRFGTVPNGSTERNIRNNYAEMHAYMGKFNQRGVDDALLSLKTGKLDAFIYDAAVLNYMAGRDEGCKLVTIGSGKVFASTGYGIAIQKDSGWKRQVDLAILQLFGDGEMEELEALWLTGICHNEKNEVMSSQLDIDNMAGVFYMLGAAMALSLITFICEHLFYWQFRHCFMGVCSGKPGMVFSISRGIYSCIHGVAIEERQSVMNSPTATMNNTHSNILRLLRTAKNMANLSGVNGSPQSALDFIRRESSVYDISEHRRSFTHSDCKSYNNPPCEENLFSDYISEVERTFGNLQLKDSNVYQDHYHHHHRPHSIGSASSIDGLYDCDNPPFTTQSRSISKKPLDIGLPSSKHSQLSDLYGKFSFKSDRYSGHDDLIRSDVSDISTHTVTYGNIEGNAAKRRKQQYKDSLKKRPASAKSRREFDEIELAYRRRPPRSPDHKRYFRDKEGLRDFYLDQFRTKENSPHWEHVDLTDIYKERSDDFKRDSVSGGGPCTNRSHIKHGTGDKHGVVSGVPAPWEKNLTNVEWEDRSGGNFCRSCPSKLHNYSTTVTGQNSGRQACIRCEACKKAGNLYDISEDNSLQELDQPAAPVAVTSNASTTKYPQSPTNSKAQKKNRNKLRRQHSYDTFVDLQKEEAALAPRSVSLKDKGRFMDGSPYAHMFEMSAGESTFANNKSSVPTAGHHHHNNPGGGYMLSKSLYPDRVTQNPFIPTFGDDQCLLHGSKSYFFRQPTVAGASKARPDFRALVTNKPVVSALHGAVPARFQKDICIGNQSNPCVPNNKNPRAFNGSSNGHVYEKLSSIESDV

SMILES: O=C1CCc2cc(OC[C@H](O)CN3CCN(c4ccc(C(F)(F)F)cc4)CC3)ccc2N1 [NP10679]
- IC50 ([1]; pH 6.9, read-out: IC50 (μM) pH 6.9): 0.023 µM
- IC50 ([1]; pH 6.9, read-out: IC50 value at pH 6.9): 0.023 µM
- IC50 ([1]; pH 7.6, read-out: IC50 (μM) pH 7.6): 0.142 µM
- IC50 ([1]; pH 7.6, read-out: IC50 value at pH 7.6): 0.142 µM
- pH Boost ([1]; ratio of IC50 at pH 7.6 to IC50 at pH 6.9): 6.2
- off-target inhibition against GluN2A ([2]; 3 μM): no noticeable off-target inhibition
- GluN2A % residual [2, 14]: 99.0 (pH 6.9) %
- off-target inhibition against GluN2C ([3]; 3 μM): no noticeable off-target inhibition
- GluN2C % residual [3, 14]: 100.1 (pH 6.9) %
- bound to human plasma proteins [4]: 97.7%
- bound to mouse plasma proteins [5]: 98.2%
- bound to dog plasma proteins [6]: 98.2%
- Ki [7]: > 10 µM
- Ki [8]: 2.29 µM
- Ki [9]: 3.09 µM
- Ki [10]: 0.135 µM
- IC50 [11]: 0.617 µM
- AUC(0-t) ([12]; iv, 3 mg/kg): 17800 ng·h/mL
- Cmax ([12]; iv, 3 mg/kg): 2350 ng/mL
- Tmax ([12]; iv, 3 mg/kg): 0.08 h
- Vd ([12]; iv, 3 mg/kg): 1.59 L/kg
- clearance ([12]; iv, 3 mg/kg): 2.44 mL/min/kg
- half-life ([12]; iv, 3 mg/kg): 8.56 h
- bioavailability ([12]; oral, 10 mg/kg): 75.7%
- AUC(0-inf) ([12]; po, 10 mg/kg): 49500 ng·h/mL
- AUC(0-t) ([12]; po, 10 mg/kg): 45000 ng·h/mL
- Cmax ([12]; po, 10 mg/kg): 3600 ng/mL
- Tmax ([12]; po, 10 mg/kg): 1 h
- half-life ([12]; po, 10 mg/kg): 7.06 h
- AUC(0-inf) ([12]; male, ip, 2 mg/kg): 5690 ng·h/mL
- AUC(0-t) ([12]; male, ip, 2 mg/kg): 4750 ng·h/mL
- Cmax ([12]; male, ip, 2 mg/kg): 581 ng/mL
- Tmax ([12]; male, ip, 2 mg/kg): 0.5 h
- half-life ([12]; male, ip, 2 mg/kg): 9.9 h
- AUC(0-inf) ([12]; male, ip, 5 mg/kg): 13100 ng·h/mL
- AUC(0-t) ([12]; male, ip, 5 mg/kg): 11800 ng·h/mL
- Cmax ([12]; male, ip, 5 mg/kg): 1430 ng/mL
- Tmax ([12]; male, ip, 5 mg/kg): 0.5 h
- half-life ([12]; male, ip, 5 mg/kg): 7.5 to 9.9 h
- Cmax ([13]; 25 mg): 213 ± 26 ng/mL
- Tmax ([13]; 25 mg): 0.5 h
- half-life ([13]; 25 mg): 15.4 to 36.2 h
- Cmax ([13]; 50 mg): 394 ± 72 ng/mL
- Tmax ([13]; 50 mg): 1 ± 0.4 h
- half-life ([13]; 50 mg): 15.5 to 25.6 h
- half-life ([13]; 100 mg): 12.5 to 34 h
